From US10130590B2, “Methods of treating cancer with atovaquone-related compounds” (DANA-FARBER CANCER INSTITUTE, INC., priority 2013, dated 2018) come the findings set out here.

The subject of one test is mTOR pathway. The test can be described thus: Western blot of S6 phosphorylation in TSC2 or REDD1 knockout MEFs. Type of test: cell-based, mouse. The conditions noted are these: 25 μM, 2.5 hours. As to the method: Mouse embryonic fibroblasts (MEFs) were cultured in DMEM+10% FBS. TSC2-null (see, Zhang et al. J Clin Invest. 2003; 112(8):1223-1233) and REDD1-null (see, Sofer et al. Mol. Cell. Biol. July 2005 vol. 25 no. 14 5834-5845) MEFs, along with MEFs from the littermate controls, were kind gifts from Dr. John Blenis and Dr. Leif Ellisen, respectively. HEL (see, Iwama et al. Mol. Cell. Biol. June 1999 vol. 19 no. 6 3940-3950) was a kind gift of Dr. Daniel G. Tenen and grown in RPMI-1640+10% FBS. OCI-AML2 and OCI-AML3 (see, Grunberger et al. Blood Dec. 1, 2003 vol. 102 no. 12 4153-4158), and MOLM-13 (German Collection of Microorganisms and Cell Cultures (DSMZ, Braunschweig, Germany)) were kind gifts of Dr. James D. Griffin and grown in RPMI-1640+10% FBS. MM.1S (ATCC) was a kind gift of Dr. Kenneth C. Anderson and grown in RPMI-1640+10% FBS. SET2 (see, Koppikar et al. Nature 489, 155-159 (6 Sep. 2012)) was a kind gift of Dr. Ross L. Levine and grown in RPMI-1640+10% FBS. HL60 (ATCC) was a kind gift of Dr. James D. Griffin and grown in RPMI-1640+10% FBS. […] Molecular Pharmacology 78(5):903-908; and Walker S R, et al. (2009) Reciprocal effects of STAT5 and STAT3 in breast cancer. Molecular Cancer Research: MCR 7(6):966-976). Peripheral blood mononuclear cells (PBMCs) were isolated from healthy donors by Ficoll density gradient centrifugation and maintained in RPMI-1640+10% FBS. […]

The subject of another test is U266 cells. As to the kind of experiment: Viability of U266 cells grown in patient serum. The test is classed as cell-based, human. As to conditions: serum approximately 100 days following HSCT; compared to serum of patients receiving TMP-SMX; 4 days. As to the method: FIG. 43 contains a dot plot quantifying viability of U266 cancer cells grown for 4 days in serum from patients taking trimethoprim/sulfamethoxazole (TMP/SMX) or atovaquone; the indicated p-value was determined using the two-sample t-test.
The patient population consisted of AML patients treated with HSCT at the Dana-Farber Cancer Institute and who survived at least 150 days after transplant without relapse. Patients treated with atovaquone for at least 100 days within the 150-day period were classified as “high atovaquone” exposure, while the remaining patients were classified as “low atovaquone” exposure. […] To further investigate the anti-cancer activity of atovaquone in patients, serum samples were collected from patients approximately 100 days following HSCT who were being treated with either TMP-SMX or atovaquone. […] Atovaquone is a colored compound, and its presence in patient plasma is visibly noticeable.

Molecules are shown by their SMILES.

Consider `O=C1C(O)=C([C@H]2CC[C@H](c3ccc(Cl)cc3)CC2)C(=O)c2ccccc21` [atovaquone, trans-2-[4-(4-chlorophenyl)cyclohexyl]-3-hydroxy-1,4-naphthalenedione], for which, in the test with mTOR pathway, the “S6 phosphorylation in MEFs with knockout of TSC2 or REDD1” value is listed as “no effect on S6 phosphorylation”. Also, the “viability of U266 cells in serum from treated patients” value with U266 cells is listed as “reduced the viability of U266 cells”.
